# Results: ChEMBL document CHEMBL4033741, “Dioscin suppresses TGF-β1-induced epithelial-mesenchymal transition and suppresses A549 lung cancer migration and invasion” (2017)
# The source made the active and inactive calls. No cut-off for these calls is given here.
# How the values were obtained:
# [1] = target: Matrix metalloproteinase-9 (Homo sapiens) (UniProt P14780); assay: Inhibition of TGF-beta1-induced MMP9 activity in human A549 cells at 2.5 to 3 uM for 2 hrs followed by TGF-beta1 stimulation for 24 hrs by gelatin zymography; assay type: cell-based
# [2] = target: MAP kinase p38 (Homo sapiens) (UniProt O15264+Q15759+Q16539+P53778); assay: Inhibition of TGF-beta1-induced p38 phosphorylation in human A549 cells at 2.5 to 3 uM for 2 hrs followed by TGF-beta1 stimulation for 24 hrs by Western blot method; assay type: cell-based
# A549 [3] = assay: Inhibition of TGF-beta1-induced epithelial-mesenchymal transition in human A549 cells assessed as suppression of cell elongation and spindle like shapes pre-incubated for 2 hrs at 2.5 to 3 uM for 2 hrs followed by TGF-beta1 stimulation for 24 hrs; assay type: functional, cell-based
# A549 [4] = assay: Inhibition of TGF-beta1-induced cell migration in human A549 cells at 2.5 to 3 uM treated along with TGF-beta1 stimulation following cell layer cell layer scratching measured after 24 hrs; assay type: functional, cell-based
# A549 [5] = assay: Inhibition of TGF-beta1-induced MMP9 gene expression in human A549 cells at 2.5 to 3 uM for 2 hrs followed by TGF-beta1 stimulation for 24 hrs by qRT-PCR method; assay type: functional, cell-based
# A549 [6] = assay: Inhibition of TGF-beta1-induced epithelial-mesenchymal transition in human A549 cells assessed as reduction in SNAI2 gene expression at 2.5 to 3 uM for 2 hrs followed by TGF-beta1 stimulation for 24 hrs by qRT-PCR method; assay type: functional, cell-based
# A549 [7] = assay: Inhibition of TGF-beta1-induced epithelial-mesenchymal transition in human A549 cells assessed as reduction in N-cadherin gene expression at 2.5 to 3 uM for 2 hrs followed by TGF-beta1 stimulation for 24 hrs by qRT-PCR method; assay type: functional, cell-based
# A549 [8] = assay: Antiproliferative activity against human A549 cells assessed as inhibition of cell growth at 4 uM incubated for 24 to 48 hrs by CCK8 assay; assay type: functional, cell-based
# A549 [9] = assay: Inhibition of TGF-beta1-induced epithelial-mesenchymal transition in human A549 cells assessed as reduction in Snail gene expression at 2.5 to 3 uM for 2 hrs followed by TGF-beta1 stimulation for 24 hrs by qRT-PCR method; assay type: functional, cell-based
# A549 [10] = assay: Inhibition of TGF-beta1-induced epithelial-mesenchymal transition in human A549 cells assessed as reduction in TGFbetaR1 gene expression at 2.5 to 3 uM for 2 hrs followed by TGF-beta1 stimulation for 24 hrs by qRT-PCR method; assay type: functional, cell-based
# A549 [11] = assay: Antiproliferative activity against human A549 cells assessed as cell survival rate at 2 uM incubated for 24 hrs by CCK8 assay; assay type: functional; settings: A549, 24 h, read-out: Survival
# A549 [12] = assay: Inhibition of TGF-beta1-induced cell invasion in human A549 cells at 2.5 to 3 uM measured after 48 hrs by Matrigel invasion assay; assay type: functional, cell-based
# [13] = target: Mothers against decapentaplegic homolog 2 (Homo sapiens) (UniProt Q15796); assay: Inhibition of TGF-beta1-induced Smad2 phosphorylation in human A549 cells at 2.5 to 3 uM for 2 hrs followed by TGF-beta1 stimulation for 24 hrs by Western blot method; assay type: cell-based
# [14] = target: 72 kDa type IV collagenase (Homo sapiens) (UniProt P08253); assay: Inhibition of TGF-beta1-induced MMP2 activity in human A549 cells at 2.5 to 3 uM for 2 hrs followed by TGF-beta1 stimulation for 24 hrs by gelatin zymography; assay type: cell-based
# A549 [15] = assay: Antiproliferative activity against human A549 cells assessed as cell survival rate at 2.5 uM incubated for 24 hrs by CCK8 assay; assay type: functional; settings: A549, 24 h, read-out: Survival
# A549 [16] = assay: Inhibition of TGF-beta1-induced epithelial-mesenchymal transition in human A549 cells assessed as increase in E-cadherin gene expression at 2.5 to 3 uM for 2 hrs followed by TGF-beta1 stimulation for 24 hrs by qRT-PCR method; assay type: functional, cell-based
# A549 [17] = assay: Inhibition of TGF-beta1-induced epithelial-mesenchymal transition in human A549 cells assessed as decrease in N-cadherin expression pre-incubated for 2 hrs at 2.5 to 3 uM for 2 hrs followed by TGF-beta1 stimulation for 24 hrs by Western blot method; assay type: functional, cell-based
# A549 [18] = assay: Inhibition of TGF-beta1-induced epithelial-mesenchymal transition in human A549 cells assessed as reduction in Smad2 gene expression at 2.5 to 3 uM for 2 hrs followed by TGF-beta1 stimulation for 24 hrs by qRT-PCR method; assay type: functional, cell-based
# A549 [19] = assay: Antiproliferative activity against human A549 cells assessed as cell survival rate at 0.5 uM incubated for 24 hrs by CCK8 assay; assay type: functional; settings: A549, 24 h, read-out: Survival
# A549 [20] = assay: Inhibition of TGF-beta1-induced epithelial-mesenchymal transition in human A549 cells assessed as increase in E-cadherin expression pre-incubated for 2 hrs at 2.5 to 3 uM for 2 hrs followed by TGF-beta1 stimulation for 24 hrs by Western blot method; assay type: functional, cell-based
# A549 [21] = assay: Inhibition of TGF-beta1-induced epithelial-mesenchymal transition in human A549 cells assessed as reduction in Snail protein expression at 2.5 to 3 uM for 2 hrs followed by TGF-beta1 stimulation for 24 hrs by Western blot method; assay type: functional, cell-based
# A549 [22] = assay: Antiproliferative activity against human A549 cells assessed as cell survival rate at 3 uM incubated for 24 hrs by CCK8 assay; assay type: functional; settings: A549, 24 h, read-out: Survival
# A549 [23] = assay: Inhibition of TGF-beta1-induced MMP2 gene expression in human A549 cells at 2.5 to 3 uM for 2 hrs followed by TGF-beta1 stimulation for 24 hrs by qRT-PCR method; assay type: functional, cell-based
# A549 [24] = assay: Inhibition of TGF-beta1-induced epithelial-mesenchymal transition in human A549 cells assessed as reduction in TGFbeta gene expression at 2.5 to 3 uM for 2 hrs followed by TGF-beta1 stimulation for 24 hrs by qRT-PCR method; assay type: functional, cell-based
# A549 [25] = assay: Antiproliferative activity against human A549 cells assessed as cell survival rate at 1 uM incubated for 24 hrs by CCK8 assay; assay type: functional; settings: A549, 24 h, read-out: Survival
# A549 [26] = assay: Inhibition of TGF-beta1-induced epithelial-mesenchymal transition in human A549 cells assessed as reduction in vimentin gene expression at 2.5 to 3 uM for 2 hrs followed by TGF-beta1 stimulation for 24 hrs by qRT-PCR method; assay type: functional, cell-based
# Sequence of Matrix metalloproteinase-9 (Homo sapiens) (P14780 whole entry): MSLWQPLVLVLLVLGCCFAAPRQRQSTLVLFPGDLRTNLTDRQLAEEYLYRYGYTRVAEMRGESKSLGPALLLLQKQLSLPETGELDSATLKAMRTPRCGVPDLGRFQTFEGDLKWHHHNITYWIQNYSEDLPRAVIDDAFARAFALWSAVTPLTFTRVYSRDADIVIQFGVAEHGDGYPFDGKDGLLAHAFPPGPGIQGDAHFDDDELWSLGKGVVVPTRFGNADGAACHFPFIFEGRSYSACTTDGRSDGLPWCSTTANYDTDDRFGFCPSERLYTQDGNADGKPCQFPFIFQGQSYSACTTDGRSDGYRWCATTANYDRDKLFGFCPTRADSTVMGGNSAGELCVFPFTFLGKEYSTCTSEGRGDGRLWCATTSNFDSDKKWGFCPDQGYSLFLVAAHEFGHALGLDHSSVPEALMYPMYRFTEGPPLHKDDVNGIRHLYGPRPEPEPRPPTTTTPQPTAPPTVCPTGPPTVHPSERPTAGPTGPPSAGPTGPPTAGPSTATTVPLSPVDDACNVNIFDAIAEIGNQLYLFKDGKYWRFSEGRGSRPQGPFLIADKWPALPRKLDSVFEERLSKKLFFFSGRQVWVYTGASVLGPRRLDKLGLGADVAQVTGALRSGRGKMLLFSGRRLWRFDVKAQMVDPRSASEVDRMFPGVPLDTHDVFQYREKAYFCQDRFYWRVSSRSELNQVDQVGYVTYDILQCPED
# Sequence of 72 kDa type IV collagenase (Homo sapiens) (P08253 110-660 limits assumed): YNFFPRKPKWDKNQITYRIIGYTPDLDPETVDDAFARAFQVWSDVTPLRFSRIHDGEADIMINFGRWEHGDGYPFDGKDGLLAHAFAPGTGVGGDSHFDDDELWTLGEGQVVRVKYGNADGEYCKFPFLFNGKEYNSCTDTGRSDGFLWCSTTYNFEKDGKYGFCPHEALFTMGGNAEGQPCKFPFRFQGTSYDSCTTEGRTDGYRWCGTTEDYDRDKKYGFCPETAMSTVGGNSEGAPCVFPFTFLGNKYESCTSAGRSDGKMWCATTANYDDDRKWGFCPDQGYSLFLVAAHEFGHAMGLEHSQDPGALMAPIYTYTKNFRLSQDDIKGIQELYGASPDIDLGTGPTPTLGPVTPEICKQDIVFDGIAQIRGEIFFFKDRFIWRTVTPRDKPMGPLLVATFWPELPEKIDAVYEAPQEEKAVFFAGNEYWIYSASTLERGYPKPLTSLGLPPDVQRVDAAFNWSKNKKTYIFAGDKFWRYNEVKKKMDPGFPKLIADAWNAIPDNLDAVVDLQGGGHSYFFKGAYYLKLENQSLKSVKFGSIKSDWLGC
# Sequence of Mothers against decapentaplegic homolog 2 (Homo sapiens) (Q15796 whole entry): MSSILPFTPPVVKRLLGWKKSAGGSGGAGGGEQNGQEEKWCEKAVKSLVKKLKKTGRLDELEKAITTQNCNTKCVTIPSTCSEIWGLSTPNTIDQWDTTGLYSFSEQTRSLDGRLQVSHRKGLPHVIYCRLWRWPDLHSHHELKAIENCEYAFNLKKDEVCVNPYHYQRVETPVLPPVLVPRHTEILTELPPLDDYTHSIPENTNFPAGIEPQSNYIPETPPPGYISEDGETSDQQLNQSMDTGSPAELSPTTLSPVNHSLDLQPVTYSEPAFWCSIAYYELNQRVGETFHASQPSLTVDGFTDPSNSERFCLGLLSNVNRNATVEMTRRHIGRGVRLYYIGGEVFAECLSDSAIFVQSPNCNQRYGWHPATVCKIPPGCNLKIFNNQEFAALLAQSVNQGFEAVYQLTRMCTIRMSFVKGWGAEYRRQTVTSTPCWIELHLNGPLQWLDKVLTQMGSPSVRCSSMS
compound,measurement,setting,value
C[C@@H]1CC[C@@]2(OC1)O[C@H]1C[C@H]3[C@@H]4CC=C5C[C@@H](O[C@@H]6O[C@H](CO)[C@@H](O[C@@H]7O[C@@H](C)[C@H](O)[C@@H](O)[C@H]7O)[C@H](O)[C@H]6O[C@@H]6O[C@@H](C)[C@H](O)[C@@H](O)[C@H]6O)CC[C@]5(C)[C@H]4CC[C@]3(C)[C@H]1[C@@H]2C [DIOSCIN],inhibition,[1],Active
same,inhibition,[2],Active
same,inhibition,A549 [3],Active
same,inhibition,A549 [4],Dose-dependent effect
same,inhibition,A549 [5],Dose-dependent effect
same,inhibition,A549 [6],Dose-dependent effect
same,inhibition,A549 [7],Dose-dependent effect
same,growth inhibition (GI),A549 [8],Active
same,inhibition,A549 [9],Dose-dependent effect
same,inhibition,A549 [10],Dose-dependent effect
same,viability at 2 µM,A549 [11],> 80%
same,inhibition,A549 [12],Active
same,inhibition,[13],Dose-dependent effect
same,inhibition,[14],Active
same,viability at 2.5 µM,A549 [15],> 80%
same,inhibition,A549 [16],Dose-dependent effect
same,inhibition,A549 [17],Active
same,inhibition,A549 [18],Dose-dependent effect
same,viability at 0.5 µM,A549 [19],> 80%
same,inhibition,A549 [20],Active
same,inhibition,A549 [21],Dose-dependent effect
same,viability at 3 µM,A549 [22],> 80%
same,inhibition,A549 [23],Dose-dependent effect
same,inhibition,A549 [24],Dose-dependent effect
same,viability at 1 µM,A549 [25],> 80%
same,inhibition,A549 [26],Dose-dependent effect
